These results are taken from PubChem BioAssay (NCI).

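96-well plates; 48 h exposure; 5 concentrations. Endpoints by linear interpolation between flanking doses. Not reached: highest tested concentration assigned. GI50: concentration for 50% inhibition of growth. TGI marks complete inhibition of growth.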

The term GI50 denotes the concentration that inhibits growth by half. Broadly, the TGI is the concentration at which net growth stops. Lower therefore signals greater sensitivity of the cells.

Test systems include HCT-15 colon; BT-549 breast; SK-MEL-5 melanoma; HL-60(TB) leukemia; HCC-2998 colon; NCI-H460 lung; HOP-62 NSCLC; NCI/ADR-RES ovarian; SK-MEL-28 melanoma; K-562 leukemia.
What all share (assay): DTP human tumour cell line panel, 48 h

`O=C(/C=C/C12c3ccccc3C(c3ccccc31)C1C(=O)NC(=O)C12)c1ccccc1` (configuration not stated): the GI50 was 1.64 µM with HCT-15 colon; 1.4 µM with BT-549 breast; 1.72 µM with SK-MEL-5 melanoma; 1.5 µM in the experiment on HL-60(TB) leukemia; 1.7 µM in the experiment with HCC-2998 colon; 1.68 µM with NCI-H460 lung. Further, the GI50 with HOP-62 NSCLC was 2.17 µM; in the experiment on NCI/ADR-RES ovarian, 1.92 µM; in the experiment on SK-MEL-28 melanoma, 1.88 µM; with K-562 leukemia, 1.94 µM. In addition, the TGI in the experiment on HCT-15 colon turned out to be 6.84 µM; with BT-549 breast, 2.84 µM; in the experiment with SK-MEL-5 melanoma, 3.1 µM; in the experiment on HL-60(TB) leukemia, 5.97 µM; in the experiment on HCC-2998 colon, 3.27 µM; with NCI-H460 lung, 4.65 µM. Further, the total growth inhibition concentration (TGI) was 4.38 µM with HOP-62 NSCLC, 5.73 µM in the experiment with NCI/ADR-RES ovarian, 3.63 µM in the experiment with SK-MEL-28 melanoma and more than 100 µM in the experiment on K-562 leukemia.
In the case of `O=c1[nH]c(=O)n(C2CC(O)C(CO)O2)cc1C(F)(F)F` (configuration not stated), the GI50 in the experiment on HCT-15 colon was 46 µM; in the experiment on BT-549 breast it was 4.61 µM; with SK-MEL-5 melanoma, 0.399 µM; in the experiment on HL-60(TB) leukemia, 0.409 µM; with HCC-2998 colon it was 11.3 µM; with NCI-H460 lung, 0.337 µM. Moreover, the figures for the GI50 with HOP-62 NSCLC, in the experiment with NCI/ADR-RES ovarian and in the experiment on SK-MEL-28 melanoma were 3.68 µM, 4.81 µM and more than 62.1 µM, respectively. Also, the TGI in the experiment on HCT-15 colon, in the experiment on BT-549 breast, with SK-MEL-5 melanoma, in the experiment on HCC-2998 colon, in the experiment on NCI-H460 lung and in the experiment on HOP-62 NSCLC was more than 100 µM in each case. For the same compound, the TGI in the experiment on NCI/ADR-RES ovarian, in the experiment on SK-MEL-28 melanoma and in the experiment on K-562 leukemia was more than 100 µM throughout.
Consider `CN(C)CCCNc1nc2ccccc2c2[nH]c3ccccc3c12`, for which the GI50 in the experiment with HCT-15 colon was 0.266 µM; in the experiment on BT-549 breast, 1.86 µM; in the experiment with SK-MEL-5 melanoma, 3.02 µM; in the experiment with HL-60(TB) leukemia it was 1.05 µM; in the experiment with HCC-2998 colon, 0.251 µM; in the experiment on NCI-H460 lung, 0.737 µM. Also, the GI50 in the experiment with HOP-62 NSCLC is 0.497 µM; with NCI/ADR-RES ovarian it was 0.769 µM; with SK-MEL-28 melanoma it was 2.04 µM; in the experiment on K-562 leukemia it was 1.64 µM. Moreover, the concentration for total growth inhibition (TGI) was 4.31 µM with HCT-15 colon; 5.35 µM with BT-549 breast; 8.33 µM in the experiment with SK-MEL-5 melanoma; 2.49 µM in the experiment with HL-60(TB) leukemia; 0.942 µM in the experiment on HCC-2998 colon; 3.28 µM in the experiment on NCI-H460 lung. The concentration for total growth inhibition (TGI) with HOP-62 NSCLC turned out to be 3.77 µM; with NCI/ADR-RES ovarian, 4.08 µM; in the experiment on SK-MEL-28 melanoma it was 5.84 µM; with K-562 leukemia, 22.2 µM.
Regarding `C[C@@H]1CC[C@@]2(NC1)O[C@H]1C[C@H]3[C@@H]4CC[C@H]5C[C@@H](O)CC[C@]5(C)[C@H]4CC[C@]3(C)[C@H]1[C@@H]2C`, the total growth inhibition concentration (TGI) with HCT-15 colon was more than 100 µM; in the experiment with BT-549 breast it was more than 100 µM; with SK-MEL-5 melanoma, more than 100 µM; in the experiment on HL-60(TB) leukemia, 53.8 µM; with HCC-2998 colon, more than 100 µM; with NCI-H460 lung, more than 100 µM. Also, the TGI with HOP-62 NSCLC, in the experiment on NCI/ADR-RES ovarian, with SK-MEL-28 melanoma and with K-562 leukemia was more than 100 µM each time.
`COc1ccc2[nH]c(C(=O)OCc3ccc4c(Cl)cc(Cl)c(O)c4n3)cc2c1`: the GI50 in the experiment on HCT-15 colon is 0.698 µM; with BT-549 breast, 1.21 µM; in the experiment with SK-MEL-5 melanoma, 1.65 µM; in the experiment with HL-60(TB) leukemia, 1.5 µM; in the experiment with HCC-2998 colon, 1.64 µM; in the experiment with NCI-H460 lung it was 1.75 µM. Further, the GI50 is 1.33 µM in the experiment with HOP-62 NSCLC, 2.08 µM in the experiment with NCI/ADR-RES ovarian, 1.67 µM in the experiment on SK-MEL-28 melanoma and 0.355 µM in the experiment on K-562 leukemia. The TGI with HCT-15 colon is 2.44 µM; in the experiment with BT-549 breast, 2.56 µM; with SK-MEL-5 melanoma, 3.02 µM; in the experiment with HL-60(TB) leukemia, 3.84 µM; in the experiment with HCC-2998 colon it was 3.29 µM; with NCI-H460 lung it was 3.45 µM. The total growth inhibition concentration (TGI) in the experiment on HOP-62 NSCLC was 2.8 µM; in the experiment with NCI/ADR-RES ovarian, 8.16 µM; with SK-MEL-28 melanoma, 3.03 µM; with K-562 leukemia, 3.05 µM.
As to `CCn1c(-c2nonc2N)nc2c(N3CCCC3)nccc21`, the GI50 in the experiment on HCT-15 colon is 11.2 µM; in the experiment with BT-549 breast, more than 21.8 µM; in the experiment with SK-MEL-5 melanoma, 19 µM; with HL-60(TB) leukemia, 24.9 µM; in the experiment with HCC-2998 colon it was more than 25 µM; in the experiment with NCI-H460 lung, 8.95 µM. Also, the GI50 with HOP-62 NSCLC was 12.3 µM; in the experiment on NCI/ADR-RES ovarian, 10.7 µM; in the experiment with SK-MEL-28 melanoma, more than 25 µM; in the experiment with K-562 leukemia, 10.3 µM. Also, the TGI with HCT-15 colon, in the experiment with BT-549 breast, in the experiment on SK-MEL-5 melanoma, in the experiment on HL-60(TB) leukemia, in the experiment on HCC-2998 colon and with NCI-H460 lung was more than 25 µM each time. Further, the TGI in the experiment on HOP-62 NSCLC, with NCI/ADR-RES ovarian, with SK-MEL-28 melanoma and with K-562 leukemia was more than 25 µM each time.
Regarding `O=C[C@@H](CO)O[C@H](C=O)n1cnc2c(=O)[nH]cnc21`, the concentration for total growth inhibition (TGI) worked out at 417 µM in the experiment on HCT-15 colon; 2370 µM with BT-549 breast; 1150 µM with SK-MEL-5 melanoma; 217 µM in the experiment on HL-60(TB) leukemia; 1200 µM with HCC-2998 colon; 2130 µM in the experiment on NCI-H460 lung. Also, the TGI in the experiment on HOP-62 NSCLC turned out to be 630 µM; with NCI/ADR-RES ovarian, 1810 µM; with SK-MEL-28 melanoma, 1530 µM; with K-562 leukemia, 496 µM.
As to `COC(=O)N[C@H]1CCc2c(Cl)c(OC)c(OC)c(OC)c2-c2ccc(SC)c(=O)cc21`, the GI50 in the experiment on HCT-15 colon, in the experiment with BT-549 breast, with SK-MEL-5 melanoma, with HL-60(TB) leukemia, in the experiment on HCC-2998 colon and in the experiment with NCI-H460 lung was less than 0.01 µM throughout. Moreover, the 50% growth inhibitory concentration (GI50) with HOP-62 NSCLC was less than 0.01 µM; with NCI/ADR-RES ovarian, 0.0155 µM; in the experiment with SK-MEL-28 melanoma it was 8.52 µM; in the experiment on K-562 leukemia it was less than 0.01 µM. For the same compound, the total growth inhibition concentration (TGI) in the experiment with HCT-15 colon is more than 43.9 µM; with BT-549 breast, 1.52 µM; with SK-MEL-5 melanoma, less than 0.0127 µM; in the experiment with HL-60(TB) leukemia, less than 0.0127 µM; with NCI-H460 lung it was 1.05 µM; with HOP-62 NSCLC, more than 100 µM. Further, the TGI was 0.509 µM in the experiment with NCI/ADR-RES ovarian, 46 µM in the experiment on SK-MEL-28 melanoma and more than 43.9 µM in the experiment with K-562 leukemia.
Consider `COc1ccc(-c2cc(=O)c3c(O)c(OC)c(OC)c(OC)c3o2)cc1`, for which the TGI in the experiment with HCT-15 colon was more than 100 µM; in the experiment on BT-549 breast it was more than 100 µM; in the experiment on SK-MEL-5 melanoma it was more than 100 µM; in the experiment with HL-60(TB) leukemia, more than 100 µM; in the experiment with HCC-2998 colon it was more than 20.4 µM; with NCI-H460 lung, more than 100 µM. Also, the TGI in the experiment with HOP-62 NSCLC, in the experiment on NCI/ADR-RES ovarian, with SK-MEL-28 melanoma and in the experiment on K-562 leukemia was more than 100 µM throughout.
On to `Cc1ccc(C(=O)NC2CC2)cc1-c1ccc2[nH]ncc2c1`, for which the GI50 in the experiment on HCT-15 colon, in the experiment on BT-549 breast, with SK-MEL-5 melanoma, in the experiment on HL-60(TB) leukemia, with HCC-2998 colon and in the experiment on NCI-H460 lung was more than 25 µM each time. The GI50 in the experiment with HOP-62 NSCLC was more than 25 µM; in the experiment with NCI/ADR-RES ovarian, more than 25 µM; with SK-MEL-28 melanoma, more than 25 µM; with K-562 leukemia, more than 22 µM. Also, the concentration for total growth inhibition (TGI) in the experiment with HCT-15 colon, with BT-549 breast, in the experiment on SK-MEL-5 melanoma, in the experiment with HL-60(TB) leukemia, with HCC-2998 colon and with NCI-H460 lung was more than 25 µM in each case. Moreover, the TGI in the experiment with HOP-62 NSCLC, in the experiment with NCI/ADR-RES ovarian, in the experiment with SK-MEL-28 melanoma and in the experiment with K-562 leukemia was more than 25 µM throughout.
For the compound `CC1(C)CCC[C@]2(C)c3ccccc3C(=O)CC12` (some centres not stated), the GI50 with HCT-15 colon is 24.9 µM; in the experiment on BT-549 breast it was 39.4 µM; in the experiment with SK-MEL-5 melanoma, 18 µM; in the experiment on HL-60(TB) leukemia it was 40.5 µM; in the experiment with HCC-2998 colon, 20.8 µM; in the experiment on NCI-H460 lung, 34.9 µM. Besides, the GI50 in the experiment on HOP-62 NSCLC was more than 100 µM; in the experiment on NCI/ADR-RES ovarian, 20.3 µM; in the experiment on SK-MEL-28 melanoma, 64.6 µM; in the experiment on K-562 leukemia, 41.4 µM. Also, the TGI in the experiment on HCT-15 colon is more than 100 µM; in the experiment on BT-549 breast, more than 100 µM; with SK-MEL-5 melanoma, 46.4 µM; with HL-60(TB) leukemia, more than 100 µM; in the experiment with HCC-2998 colon, 81.4 µM; in the experiment with NCI-H460 lung it was more than 100 µM. Besides, the concentration for total growth inhibition (TGI) in the experiment with HOP-62 NSCLC is more than 100 µM; in the experiment with NCI/ADR-RES ovarian, 91.1 µM; in the experiment with SK-MEL-28 melanoma it was more than 100 µM; in the experiment with K-562 leukemia, more than 100 µM.
With `C[N+](C)=c1ccc2nc3c(cc(NCCCNc4cc5oc6cc(=[N+](C)C)ccc-6nc5c5ccccc45)c4ccccc43)oc-2c1`, the GI50 with HCT-15 colon is 1.9 µM; in the experiment on BT-549 breast, 5.97 µM; in the experiment with SK-MEL-5 melanoma, 1.41 µM; with HL-60(TB) leukemia it was 2.56 µM; with HCC-2998 colon, 1.77 µM; with NCI-H460 lung it was 1.89 µM. The GI50 with HOP-62 NSCLC is 2.92 µM; with NCI/ADR-RES ovarian, 6.63 µM; in the experiment with SK-MEL-28 melanoma it was 3.77 µM; with K-562 leukemia, 1.57 µM. In addition, the total growth inhibition concentration (TGI) was 6.33 µM in the experiment with HCT-15 colon; more than 64.3 µM with BT-549 breast; 2.79 µM in the experiment with SK-MEL-5 melanoma; 9.25 µM in the experiment with HL-60(TB) leukemia; 3.47 µM in the experiment on HCC-2998 colon; 4.06 µM in the experiment with NCI-H460 lung. In addition, the TGI was 13 µM with HOP-62 NSCLC, more than 100 µM with NCI/ADR-RES ovarian, 14.7 µM with SK-MEL-28 melanoma and more than 25.5 µM in the experiment with K-562 leukemia.
